# Read-outs that look alike come from different tables or passages of the source.
# Tests used:
# RKO cell xenografts [1] = experiment: Assessment of survival / increase in life span (ILS) in RKO xenograft-bearing mice; format: in vivo; details: for % Increased Life Span: Table 3; for % ILS: Table 4; for 50% Treatment Days: median survival day
# Description: (§1) Mice were implanted with RKO cell xenografts. The mice, cell line used, and implantation are described below.
# (§2) RKO cells (American Type Culture Collection, Rockville, Md.) were maintained in DMEM media+10% (v/v) heat-inactivated FBS+1% (v/v) […] L-glutamine. Each mouse received 2×10^6 cells in a total volume of 0.2 ml. Cells were implanted subcutaneously in the right flank of each mouse using a 1 cc syringe and a 26 gauge needle.
# (§3) RKO xenograft-containing mice were randomized into groups of 10 mice each according to tumor volume so that all groups had similar starting mean tumor volumes of about 145 mm^3.
# (§4) 10 groups of mice were used.
# (§5) Treatment duration was 2 weeks.
# For survival assessment, results are plotted as the percentage survival against days after tumor implant (GraphPad Prism, version 5.03). An individual tumor volume of 1500 mm^3 was used as a surrogate for death. The % ILS was calculated as 100×[(median survival day of treated group−median survival day of control group)/median survival day of control group]. Median survival was determined utilizing Kaplan Meier survival analysis. Survival in treated groups was compared with the vehicle group by Log-rank (Mantel-Cox) Test (GraphPad Prism, version 4.3, La Jolla, Calif.). Differences between groups were considered significant when the probability value (p) was ≦0.05.
# RKO cell xenografts [2] = experiment: Tumor growth inhibition in RKO xenograft-bearing mice; format: in vivo; details: for Mean Tumor Volume (mm^3) Start Study DAY: 14: baseline; for Full Regression / Partial Regression: number of animals
# Description: as §1, §2, §3, §4, §5
# Efficacy data was graphically represented as the mean tumor volume±standard error of the mean (SEM). Tumor volumes of treated groups were presented as percentages of tumor volumes of the control groups (% T/C), using the formula: 100×((T−T0)/(C−C0)), where T represented mean tumor volume of a treated group on a specific day during the experiment, T0 represented mean tumor volume of the same […] group on the first day of treatment; C represented mean tumor volume of a control group on the specific day during the experiment, and C0 represented mean tumor volume of the same […] group on the first day of treatment.
# Tumor volume (in cubic millimeters) was calculated using the ellipsoid formula: (D×(d2))/2 where ‘D’ represents the large diameter of the tumor, and ‘d’ represents the small diameter.
# Statistical analysis of treated groups was compared with the vehicle group with Mann-Whitney Rank Sum Test, comparisons between groups were analyzed by one-way ANOVA, and post-hoc Bonferroni t-test (GraphPad Prism, version 5.03). Differences between groups were considered to be significant when the probability value (p) was ≦0.05.
# [3] = Compound II 200 mg/kg qweekly po
# [4] = Compound III 100 mg/kg qweekly po
smiles,measurement,setting,value
"CCCS(=O)(=O)Nc1ccc(F)c(C(=O)c2c[nH]c3ncc(-c4ccc(Cl)cc4)cc23)c1F [vemurafenib, Propane-1-sulfonic acid {3-[5-(4-chlorophenyl)-1H-pyrrolo[2,3-b]pyridine-3-carbonyl-2,4-difluoro-phenyl]-amide}, reference compound]",# of animals ≧ 20% BWL,vemurafenib 50 mg/kg bid po,0
same,% Change in Body Weight at end of Study Day 28,vemurafenib 50 mg/kg bid po,4.6%
same,Max % Weight Gain,vemurafenib 50 mg/kg bid po,7.5%
same,Max % Weight Loss,vemurafenib 50 mg/kg bid po,2.8%
same,Mortality,vemurafenib 50 mg/kg bid po,0
same,% Increased Life Span,RKO cell xenografts [1]; vemurafenib 50 mg/kg bid po,0%
same,% ILS,RKO cell xenografts [1]; vemurafenib 50 mg/kg,0%
same,50% Treatment Days,RKO cell xenografts [1]; vemurafenib 50 mg/kg,24 days
same,% Inhibition end of study Day: 28,RKO cell xenografts [2]; vemurafenib 50 mg/kg bid po,7%
same,% T/C end of study Day: 28,RKO cell xenografts [2]; vemurafenib 50 mg/kg bid po,93%
same,Mean Tumor Volume (mm^3) End Study DAY: 29,RKO cell xenografts [2]; vemurafenib 50 mg/kg bid po,1643.76 mm^3
same,Mean Tumor Volume (mm^3) Start Study DAY: 14,RKO cell xenografts [2]; vemurafenib 50 mg/kg bid po,142.50 mm^3
same,Full Regression,RKO cell xenografts [2]; vemurafenib 50 mg/kg bid po,0
same,Partial Regression,RKO cell xenografts [2]; vemurafenib 50 mg/kg bid po,0
CCOc1cc(C(C)(C)C)ccc1C1=N[C@@](C)(c2ccc(Cl)cc2)[C@@](C)(c2ccc(Cl)cc2)N1C(=O)N1CCN(CCCS(C)(=O)=O)CC1 [Compound II],Reason for mortality/morbidity,Compound II 100 mg/kg qd po,Technical
same,% Increased Life Span,RKO cell xenografts [1]; Compound II 100 mg/kg qd po,29%
same,% Increased Life Span,RKO cell xenografts [1]; [3],0%
same,% ILS,RKO cell xenografts [1]; Compound II 100 mg/kg,29%
same,% ILS,RKO cell xenografts [1]; Compound II 200 mg/kg,0%
same,50% Treatment Days,RKO cell xenografts [1]; Compound II 100 mg/kg,31 days
same,50% Treatment Days,RKO cell xenografts [1]; Compound II 200 mg/kg,24 days
same,% Inhibition end of study Day: 28,RKO cell xenografts [2]; Compound II 100 mg/kg qd po,64%
same,% T/C end of study Day: 28,RKO cell xenografts [2]; Compound II 100 mg/kg qd po,36%
same,Mean Tumor Volume (mm^3) End Study DAY: 29,RKO cell xenografts [2]; Compound II 100 mg/kg qd po,726.30 mm^3
same,Mean Tumor Volume (mm^3) Start Study DAY: 14,RKO cell xenografts [2]; Compound II 100 mg/kg qd po,146.39 mm^3
same,Full Regression,RKO cell xenografts [2]; Compound II 100 mg/kg qd po,0
same,Partial Regression,RKO cell xenografts [2]; Compound II 100 mg/kg qd po,0
same,% Inhibition end of study Day: 28,RKO cell xenografts [2]; [3],18%
same,% T/C end of study Day: 28,RKO cell xenografts [2]; [3],82%
same,Mean Tumor Volume (mm^3) End Study DAY: 29,RKO cell xenografts [2]; [3],1466.93 mm^3
same,Mean Tumor Volume (mm^3) Start Study DAY: 14,RKO cell xenografts [2]; [3],141.33 mm^3
same,Full Regression,RKO cell xenografts [2]; [3],0
same,Partial Regression,RKO cell xenografts [2]; [3],0
COc1cc(C(=O)O)ccc1NC(=O)[C@@H]1N[C@@H](CC(C)(C)C)[C@](C#N)(c2ccc(Cl)cc2F)[C@H]1c1cccc(Cl)c1F [Compound III],# of animals ≧ 20% BWL,Compound III 80 mg/kg qdx5 po,0
same,% Change in Body Weight at end of Study Day 28,Compound III 80 mg/kg qdx5 po,5.3%
same,Max % Weight Gain,Compound III 80 mg/kg qdx5 po,7.4%
same,Max % Weight Loss,Compound III 80 mg/kg qdx5 po,5.3%
same,Mortality,Compound III 80 mg/kg qdx5 po,0
same,# of animals ≧ 20% BWL,[4],0
same,% Change in Body Weight at end of Study Day 28,[4],6.6%
same,Max % Weight Gain,[4],7.5%
same,Max % Weight Loss,[4],4.7%
same,Mortality,[4],0
same,% Increased Life Span,RKO cell xenografts [1]; Compound III 80 mg/kg qdx5 po,29%
same,% Increased Life Span,RKO cell xenografts [1]; [4],29%
same,% ILS,RKO cell xenografts [1]; Compound III 80 mg/kg,29%
same,% ILS,RKO cell xenografts [1]; Compound III 100 mg/kg,29%
same,50% Treatment Days,RKO cell xenografts [1]; Compound III 80 mg/kg,31 days
same,50% Treatment Days,RKO cell xenografts [1]; Compound III 100 mg/kg,31 days
same,% Inhibition end of study Day: 28,RKO cell xenografts [2]; Compound III 80 mg/kg qdx5 po,65%
same,% T/C end of study Day: 28,RKO cell xenografts [2]; Compound III 80 mg/kg qdx5 po,35%
same,Mean Tumor Volume (mm^3) End Study DAY: 29,RKO cell xenografts [2]; Compound III 80 mg/kg qdx5 po,705.24 mm^3
same,Mean Tumor Volume (mm^3) Start Study DAY: 14,RKO cell xenografts [2]; Compound III 80 mg/kg qdx5 po,143.00 mm^3
same,Full Regression,RKO cell xenografts [2]; Compound III 80 mg/kg qdx5 po,0
same,Partial Regression,RKO cell xenografts [2]; Compound III 80 mg/kg qdx5 po,0
same,% Inhibition end of study Day: 28,RKO cell xenografts [2]; [4],50%
same,% T/C end of study Day: 28,RKO cell xenografts [2]; [4],50%
same,Mean Tumor Volume (mm^3) End Study DAY: 29,RKO cell xenografts [2]; [4],952.64 mm^3
same,Mean Tumor Volume (mm^3) Start Study DAY: 14,RKO cell xenografts [2]; [4],147.78 mm^3
same,Full Regression,RKO cell xenografts [2]; [4],0
same,Partial Regression,RKO cell xenografts [2]; [4],0

# Reference: US9216170B2, “Combination therapy for proliferative disorders” (Hoffman-La Roche Inc., priority 2012, dated 2015)
